Laboratory results reported in US11382328B2, “Rapid drug discovery methods for pathogen inactivation” (priority 2019, dated 2022).
Values joined by “and” are separate entries in the source; they are usually repeats but may differ in a detail not shown here. Equal entries are not always repeated. Where two headings read alike, the source gives them in different places.

System: E. coli strain W3110
Test: Synergy assays: Biolog chemical sensitivity panels with Group IB metal, coefficient of drug interaction (CDI) from relative growth
Assay type: cell-based
Conditions: for CDI (coefficient of drug interaction), copper mixed with biocide: Copper (mM) section
[1] = Silver 0.5 μM, 1st of four biocide concentrations, E. coli
[2] = Silver 0.5 μM, 2nd of four biocide concentrations, E. coli
[3] = Silver 0.5 μM, 3rd of four biocide concentrations, E. coli
[4] = Silver 0.5 μM, 4th of four biocide concentrations, E. coli
[5] = Silver 1.0 μM, 1st of four biocide concentrations, E. coli
[6] = Silver 1.0 μM, 2nd of four biocide concentrations, E. coli
[7] = Silver 1.0 μM, 3rd of four biocide concentrations, E. coli
[8] = Silver 1.0 μM, 4th of four biocide concentrations, E. coli
[9] = Silver 5.0 μM, 1st of four biocide concentrations, E. coli
[10] = Silver 5.0 μM, 2nd of four biocide concentrations, E. coli
[11] = Silver 5.0 μM, 3rd of four biocide concentrations, E. coli
[12] = Silver 5.0 μM, 4th of four biocide concentrations, E. coli

O=C(O)CN(CCOCCOCCN(CC(=O)O)CC(=O)O)CC(=O)O [EGTA]
CDI (Copper 0.1 mM, biocide concentration 1 of 4): 1.05 | CDI (Copper 0.1 mM, biocide concentration 2 of 4): 1.25 | CDI (Copper 0.1 mM, biocide concentration 3 of 4): 1.28 | CDI (Copper 0.1 mM, biocide concentration 4 of 4): 1.06 | CDI (Copper 0.5 mM, biocide concentration 1 of 4): 0.87 | CDI (Copper 0.5 mM, biocide concentration 2 of 4): 1.02 | CDI (Copper 0.5 mM, biocide concentration 3 of 4): 1.06 | CDI (Copper 0.5 mM, biocide concentration 4 of 4): 1.04 | CDI (Copper 1.0 mM, biocide concentration 1 of 4): 0.94 | CDI (Copper 1.0 mM, biocide concentration 2 of 4): 1.30 | CDI (Copper 1.0 mM, biocide concentration 3 of 4): 1.59 | CDI (Copper 1.0 mM, biocide concentration 4 of 4): 1.44 | CDI (coefficient of drug interaction) (Gold 5 μM, biocide concentration 1 of 4, E. coli): 1.05 | CDI (coefficient of drug interaction) (Gold 5 μM, biocide concentration 2 of 4, E. coli): 0.88 | CDI (coefficient of drug interaction) (Gold 5 μM, biocide concentration 3 of 4, E. coli): 0.94 | CDI (coefficient of drug interaction) (Gold 5 μM, biocide concentration 4 of 4, E. coli): 0.92 | CDI (coefficient of drug interaction) (Gold 25 μM, biocide concentration 1 of 4, E. coli): 1.07 | CDI (coefficient of drug interaction) (Gold 25 μM, biocide concentration 2 of 4, E. coli): 1.00 | CDI (coefficient of drug interaction) (Gold 25 μM, biocide concentration 3 of 4, E. coli): 0.95 | CDI (coefficient of drug interaction) (Gold 25 μM, biocide concentration 4 of 4, E. coli): 0.97 | CDI (coefficient of drug interaction), silver + biocide [1]: 0.74 | CDI (coefficient of drug interaction), silver + biocide [2]: 0.86 | CDI (coefficient of drug interaction), silver + biocide [3]: 0.82 | CDI (coefficient of drug interaction), silver + biocide [4]: 0.92 | CDI (coefficient of drug interaction), silver + biocide [5]: 1.02 | CDI (coefficient of drug interaction), silver + biocide [6]: 1.07 | CDI (coefficient of drug interaction), silver + biocide [7]: 1.01 | CDI (coefficient of drug interaction), silver + biocide [8]: 1.02 | CDI (coefficient of drug interaction), silver + biocide [9]: 1.13 | CDI (coefficient of drug interaction), silver + biocide [10]: 0.98 | CDI (coefficient of drug interaction), silver + biocide [11]: 0.72 | CDI (coefficient of drug interaction), silver + biocide [12]: 0.4 | CDI (coefficient of drug interaction) ([…], biocide concentration 1 of 4, E. coli): 1.02 | CDI (coefficient of drug interaction) ([…], biocide concentration 2 of 4, E. coli): 1.13 | CDI (coefficient of drug interaction) ([…], biocide concentration 3 of 4, E. coli): 1.04 | CDI (coefficient of drug interaction) ([…], biocide concentration 4 of 4, E. coli): 1.11

N[C@@H](CC(=O)NO)C(=O)O [L-Aspartic-β-hydroxamate]
CDI (coefficient of drug interaction), gold + biocide: 1.03 and 1.06 and 1.05 and 1.11 and 1.19 and 1.02 and 1.01

NC(CCC(=O)NO)C(=O)O [L-glutamic-γ-hydroxamate]
CDI (coefficient of drug interaction) (Copper (mM), 1st of 3 copper concentrations (head line not shown), biocide concentration 1 of 4, E. coli): 1.14 | CDI (coefficient of drug interaction) (Copper (mM), 1st of 3 copper concentrations (head line not shown), biocide concentration 2 of 4, E. coli): 1.16 | CDI (coefficient of drug interaction) (Copper (mM), 1st of 3 copper concentrations (head line not shown), biocide concentration 3 of 4, E. coli): 0.97 | CDI (coefficient of drug interaction) (Copper (mM), 1st of 3 copper concentrations (head line not shown), biocide concentration 4 of 4, E. coli): 1.01 | CDI (coefficient of drug interaction) (Copper (mM), 2nd of 3 copper concentrations (head line not shown), biocide concentration 1 of 4, E. coli): 0.87 | CDI (coefficient of drug interaction) (Copper (mM), 2nd of 3 copper concentrations (head line not shown), biocide concentration 2 of 4, E. coli): 0.90 | CDI (coefficient of drug interaction) (Copper (mM), 2nd of 3 copper concentrations (head line not shown), biocide concentration 3 of 4, E. coli): 0.92 | CDI (coefficient of drug interaction) (Copper (mM), 2nd of 3 copper concentrations (head line not shown), biocide concentration 4 of 4, E. coli): 0.96 | CDI (coefficient of drug interaction) (Copper (mM), 3rd of 3 copper concentrations (head line not shown), biocide concentration 1 of 4, E. coli): 0.75 | CDI (coefficient of drug interaction) (Copper (mM), 3rd of 3 copper concentrations (head line not shown), biocide concentration 2 of 4, E. coli): 0.80 | CDI (coefficient of drug interaction) (Copper (mM), 3rd of 3 copper concentrations (head line not shown), biocide concentration 3 of 4, E. coli): 0.69 | CDI (coefficient of drug interaction) (Copper (mM), 3rd of 3 copper concentrations (head line not shown), biocide concentration 4 of 4, E. coli): 0.74 | CDI (coefficient of drug interaction), gold + biocide (Gold (μM), first of 3 gold concentrations, biocide concentration 1 of 4): 1.03 | CDI (coefficient of drug interaction), gold + biocide (Gold (μM), first of 3 gold concentrations, biocide concentration 2 of 4): 1.03 | CDI (coefficient of drug interaction), gold + biocide (Gold (μM), first of 3 gold concentrations, biocide concentration 3 of 4): 1.08 | CDI (coefficient of drug interaction), gold + biocide (Gold (μM), first of 3 gold concentrations, biocide concentration 4 of 4): 1.08 | CDI (coefficient of drug interaction), gold + biocide (Gold (μM), second of 3 gold concentrations, biocide concentration 1 of 4): 1.02 | CDI (coefficient of drug interaction), gold + biocide (Gold (μM), second of 3 gold concentrations, biocide concentration 2 of 4): 1.01 | CDI (coefficient of drug interaction), gold + biocide (Gold (μM), second of 3 gold concentrations, biocide concentration 3 of 4): 1.09 | CDI (coefficient of drug interaction), gold + biocide (Gold (μM), second of 3 gold concentrations, biocide concentration 4 of 4): 1.04 | CDI (coefficient of drug interaction), gold + biocide (Gold (μM), third of 3 gold concentrations, biocide concentration 1 of 4): 1.01 | CDI (coefficient of drug interaction), gold + biocide (Gold (μM), third of 3 gold concentrations, biocide concentration 2 of 4): 1.01 | CDI (coefficient of drug interaction), gold + biocide (Gold (μM), third of 3 gold concentrations, biocide concentration 3 of 4): 1.02 | CDI (coefficient of drug interaction), gold + biocide (Gold (μM), third of 3 gold concentrations, biocide concentration 4 of 4): 1.01 | CDI (Silver 0.5 μM, biocide concentration 1 of 4): 0.93 | CDI (Silver 0.5 μM, biocide concentration 2 of 4): 0.75 | CDI (Silver 0.5 μM, biocide concentration 3 of 4): 0.61 | CDI (Silver 0.5 μM, biocide concentration 4 of 4): 0.49 | CDI (Silver 1.0 μM, biocide concentration 2 of 4): 0.97 | CDI (Silver 1.0 μM, biocide concentration 3 of 4): 0.93 | CDI (Silver 1.0 μM, biocide concentration 4 of 4): 0.71 | CDI (Silver 5.0 μM, biocide concentration 1 of 4): 1.00 | CDI (Silver 5.0 μM, biocide concentration 2 of 4): 0.85 | CDI (Silver 5.0 μM, biocide concentration 3 of 4): 0.71 | CDI (Silver 5.0 μM, biocide concentration 4 of 4): 0.34

CCCCCCCC[N+](C)(CCCCCCCC)CCCCCCCC.[Br-] [Methyltrioctyl NH4+ Br−]
CDI (coefficient of drug interaction), copper mixed with biocide (1st of 3 copper concentrations (value not shown), 1st of four biocide concentrations): 1.05 | CDI (coefficient of drug interaction), copper mixed with biocide (1st of 3 copper concentrations (value not shown), 2nd of four biocide concentrations): 1.22 | CDI (coefficient of drug interaction), copper mixed with biocide (1st of 3 copper concentrations (value not shown), 3rd of four biocide concentrations): 1.39 | CDI (coefficient of drug interaction), copper mixed with biocide (1st of 3 copper concentrations (value not shown), 4th of four biocide concentrations): Tox | CDI (coefficient of drug interaction), copper mixed with biocide (2nd of 3 copper concentrations (value not shown), 1st of four biocide concentrations): 1.08 | CDI (coefficient of drug interaction), copper mixed with biocide (2nd of 3 copper concentrations (value not shown), 2nd of four biocide concentrations): 1.14 | CDI (coefficient of drug interaction), copper mixed with biocide (2nd of 3 copper concentrations (value not shown), 3rd of four biocide concentrations): 1.05 | CDI (coefficient of drug interaction), copper mixed with biocide (2nd of 3 copper concentrations (value not shown), 4th of four biocide concentrations): Tox | CDI (coefficient of drug interaction), copper mixed with biocide (3rd of 3 copper concentrations (value not shown), 1st of four biocide concentrations): 0.87 | CDI (coefficient of drug interaction), copper mixed with biocide (3rd of 3 copper concentrations (value not shown), 2nd of four biocide concentrations): 0.80 | CDI (coefficient of drug interaction), copper mixed with biocide (3rd of 3 copper concentrations (value not shown), 3rd of four biocide concentrations): 0.44 | CDI (coefficient of drug interaction), copper mixed with biocide (3rd of 3 copper concentrations (value not shown), 4th of four biocide concentrations): Tox | CDI (coefficient of drug interaction) (Gold section of Table 5, first of three gold concentrations (μM, value not given), biocide concentration 1 of 4): 1.06 | CDI (coefficient of drug interaction) (Gold section of Table 5, first of three gold concentrations (μM, value not given), biocide concentration 2 of 4): 1.05 | CDI (coefficient of drug interaction) (Gold section of Table 5, first of three gold concentrations (μM, value not given), biocide concentration 3 of 4): 1.00 | CDI (coefficient of drug interaction) (Gold section of Table 5, first of three gold concentrations (μM, value not given), biocide concentration 4 of 4): Tox | CDI (coefficient of drug interaction) (Gold section of Table 5, second of three gold concentrations (μM, value not given), biocide concentration 1 of 4): 1.14 | CDI (coefficient of drug interaction) (Gold section of Table 5, second of three gold concentrations (μM, value not given), biocide concentration 2 of 4): 0.98 | CDI (coefficient of drug interaction) (Gold section of Table 5, second of three gold concentrations (μM, value not given), biocide concentration 3 of 4): 0.37 | CDI (coefficient of drug interaction) (Gold section of Table 5, second of three gold concentrations (μM, value not given), biocide concentration 4 of 4): Tox | CDI (coefficient of drug interaction) (Gold section of Table 5, third of three gold concentrations (μM, value not given), biocide concentration 1 of 4): 0.96 | CDI (coefficient of drug interaction) (Gold section of Table 5, third of three gold concentrations (μM, value not given), biocide concentration 2 of 4): 1.01 | CDI (coefficient of drug interaction) (Gold section of Table 5, third of three gold concentrations (μM, value not given), biocide concentration 3 of 4): 0.91 | CDI (coefficient of drug interaction) (Gold section of Table 5, third of three gold concentrations (μM, value not given), biocide concentration 4 of 4): Tox | CDI (coefficient of drug interaction), silver + biocide [1]: 1.01 | CDI (coefficient of drug interaction), silver + biocide [2]: 0.90 | CDI (coefficient of drug interaction), silver + biocide [3]: Tox | CDI (coefficient of drug interaction), silver + biocide [4]: Tox | CDI (coefficient of drug interaction), silver + biocide [5]: 1.04 | CDI (coefficient of drug interaction), silver + biocide [6]: 1.09 | CDI (coefficient of drug interaction), silver + biocide [7]: Tox | CDI (coefficient of drug interaction), silver + biocide [8]: Tox | CDI (coefficient of drug interaction), silver + biocide [9]: 1.66 | CDI (coefficient of drug interaction), silver + biocide [10]: 1.73 | CDI (coefficient of drug interaction), silver + biocide [11]: Tox | CDI (coefficient of drug interaction), silver + biocide [12]: Tox
